Data on five sequences can be found in paper PMC6240063, “An improved genome assembly for Larimichthys crocea reveals hepcidin gene expansion with diversified regulation and function” (Communications Biology, 2018).

Assay [1] deals with Aeromonas hydrophila. The experiment in a line: Minimum inhibitory concentration, liquid growth inhibition assay. Particulars: gram-negative, lowest concentration giving 100% decrease in optical density, peptide in PBS pH 7.4. The assay is classed as cell-based. From the text:
(§1) The mature peptides of LcHamp1 (HAMP1: […]), LcHamp2-1/4 (HAMP2-1/4: […]), LcHamp2-2 (HAMP2-2: […]), LcHamp2-3 (HAMP2-3: GSPARCRFCCR CCPGMRGCGICCRF), and LcHamp2-5 (HAMP2-5: […]) were synthesized, oxidized, and purified by GL Biochem (Shanghai) Ltd. (Shanghai, China). Purity of the synthesized peptides was >/95%. The synthetic peptides were reconstituted in phosphate buffered saline (PBS; pH 7.4). We tested the antimicrobial activity of synthesized peptides against the five gram-negative bacteria A. hydrophila, E. coli, V. alginolyticus, V. harvryi, and V. parahemolyticus, and three gram-positive bacteria B. subtilis, B. amyloliquefaciens, and S. aureus using liquid growth inhibition assays. The minimum inhibitory concentration was considered the lowest concentration that induced a 100% decrease in the optical density of the bacterial suspension.

In assay [2] the test system is Bacillus amyloliquefaciens. The description is as above. The conditions noted are these: gram-positive, lowest concentration giving 100% decrease in optical density, peptide in PBS pH 7.4. The assay is classed as cell-based.
Description: as §1

The test system of assay [3] is Bacillus subtilis. The description is as above. It is filed as cell-based. Particulars: gram-positive, lowest concentration giving 100% decrease in optical density, peptide in PBS pH 7.4.
Description: as §1

For assay [4], the system named is Escherichia coli. Described as above. The assay is classed as cell-based. The conditions noted are these: gram-negative, lowest concentration giving 100% decrease in optical density, peptide in PBS pH 7.4.
Description: as §1

The test system of assay [5] is Staphylococcus aureus. The assay is described as above. The assay is classed as cell-based. The conditions noted are these: gram-positive, lowest concentration giving 100% decrease in optical density, peptide in PBS pH 7.4.
Description: as §1

The subject of assay [6] is Vibrio alginolyticus. Described as above. It is filed as cell-based. The conditions noted are these: gram-negative, lowest concentration giving 100% decrease in optical density, peptide in PBS pH 7.4.
Description: as §1

The subject of assay [7] is Vibrio harveyi. The assay is described as above. It is filed as cell-based. Particulars: gram-negative, lowest concentration giving 100% decrease in optical density, peptide in PBS pH 7.4.
Description: as §1

Assay [8] concerns Vibrio parahaemloyticus. The assay is described as above. The conditions noted are these: gram-negative, lowest concentration giving 100% decrease in optical density, peptide in PBS pH 7.4. The assay is classed as cell-based.
Description: as §1

The subject of assay [9] is Singapore grouper iridovirus (SGIV). The experiment in a line: Antiviral activity in SGIV-infected grouper spleen cells. Particulars: grouper spleen cells pretreated 1 h with 50 µg/mL peptide, SGIV at MOI 2; cytopathic effect, ORF072 and ORF086 expression (real-time PCR), viral titer TCID50; three independent experiments. The assay is classed as cell-based. As to the method: The antiviral activity of synthetic L. crocea hepcidins was tested in grouper spleen cells, in which a viral infection model has already been established. Grouper spleen cells were seeded onto 6-well plates (Thermo Fisher Scientific, USA) for 18 h. The grouper spleen cells were pretreated for 1 h with each synthetic Hamp peptide at a final concentration of 50 µg/mL or with PBS (as a control). After pretreatment, the cells were infected with SGIV at a multiplicity of infection of 2. At 24 h post infection, cytopathic effects in the grouper spleen cells were observed microscopically (Leica Microsystems, Germany). The expression levels of two genes encoding SGIV envelope proteins (ORF072 and ORF086) were measured with real-time PCR. E. coioides β-actin (Ecβ-actin) was amplified as an internal control. The expression level of ORF072 or ORF086 was normalized to Ecβ-actin using the 2^–ΔΔCT method. Moreover, supernatants and infected cell lysates were collected to determine the viral titer 50% tissue culture infectious dose[50]. All data were obtained from three independent experiments with each performed in triplicate.

For assay [10], the system named is five gram-negative bacteria and three gram-positive bacteria. The experiment in a line: Minimum inhibitory concentration across all tested bacteria. It is filed as cell-based. The conditions noted are these: all eight tested bacteria (five gram-negative, three gram-positive); liquid growth inhibition; no antibacterial activity at highest concentration given as >.
Description: as §1

Assay [11] has as its system macrophages from L. crocea head kidney. The experiment in a line: Intracellular iron in macrophages. The conditions noted are these: 100 ng/mL peptide, 2 h, ICP-MS, versus PBS control, P < 0.05, three independent experiments. The assay is classed as cell-based, Larimichthys crocea. The method, then: Six groups of macrophages (1 × 10^6 cells per well) were seeded onto 6-well plates for 18 h. To each of five of the groups, we added one synthetic hepcidin peptide from L. crocea, with a final concentration of 100 ng/mL. The sixth group (control) was treated with PBS. After 2 h incubation, we measured the intracellular iron concentration of macrophages with Inductively Coupled Plasma Mass Spectrometry. The fold change was expressed as the intracellular iron concentration in macrophages treated with synthetic hepcidin peptides versus the intracellular iron concentration in the control macrophages.

Ends that are not written are not given here.

Regarding “GSPARCRFCCR CCPGMRGCGICCRF (disulfide) (disulfide (positions not given here)) [HAMP2-3, synthetic, oxidized mature peptide of Larimichthys crocea hepcidin LcHamp2-3]”, the MIC was 16 µM in assay [1]; 8 µM in [2]; 4 µM in assay [3]; 16 µM in assay [4]; 4 µM in [5]; 16 µM in [6]. Moreover, the MIC in [7] and in assay [8] was 16 µM in each case. In [9], the “antiviral activity against SGIV infection” value (shortened to “antiviral activity”) was “exhibited antiviral activity”.
Consider “GSPARCRFCCRCCPRMRGCGICCRF (disulfide) (disulfide (positions not given here)) [HAMP2-5, synthetic, oxidized mature peptide of Larimichthys crocea hepcidin LcHamp2-5]”, for which the MIC is on record as 1 µM in assay [1]; 1 µM in [2]; 0.25 µM in [3]; 0.5 µM in [4]; 0.5 µM in assay [5]; 0.25 µM in assay [6]. The MIC in [7] and in assay [8] was 0.5 µM each time. Moreover, the “antiviral activity” value in [9] is reported as “no identifiable antiviral activity”.
For the sequence “QSHISLCRYCCNCCKNKGCGYCCRF (disulfide (positions not given here)) [HAMP1, synthetic, oxidized mature peptide of Larimichthys crocea hepcidin LcHamp1]”, the “minimum inhibitory concentrations for the bacterial species tested” value (from here on “minimum inhibitory concentrations”) in assay [10] is listed as greater than 300 µM. The “antiviral activity” value in assay [9] is “no identifiable antiviral activity”. Besides, the “intracellular iron content of macrophages (regulatory effect on iron metabolism)” value (“intracellular iron content” below) in assay [11] is on record as “increases in iron content”.
Regarding “SSAAKCQFCCRCCPDMIGCGICCRF (disulfide (positions not given here)) [HAMP2-1/4]”, in assay [10], the “minimum inhibitory concentrations” value is listed as greater than 300 µM. The “antiviral activity” value in assay [9] was “exhibited antiviral activity”. Also, the “intracellular iron content” value in assay [11] is reported as “increases in iron content”.
Take “SSAAKCQFCCRCCPRMSGCGVCCRF (disulfide (positions not given here)) [HAMP2-2, synthetic, oxidized mature peptide of Larimichthys crocea hepcidin LcHamp2-2]”: the “minimum inhibitory concentrations” value in [10] is greater than 300 µM. In [9], the “antiviral activity” value is reported as “no identifiable antiviral activity”. In addition, the “intracellular iron content” value in assay [11] is given as “no antibacterial activity, antiviral activity or regulatory effect on iron metabolism”.
